What all share (assay type): biochemical
Assay [1] deals with T1, cathepsin B in SHSY5Y human neuroblastoma cell homogenate (Homo sapiens, UniProt P07858).
T1 construct: endogenous in cells; host or cells: SH-SY5Y human neuroblastoma cells
In words: Cathepsin B activity in neuroblastoma cell homogenates in presence of inhibitors. To be noted: inhibitor 1 μM, Z-Arg-Arg-AMC substrate, pH 5.5. The protocol: Cathepsin B in human neuroblastoma cells treated with inhibitors. Neuroblastoma cells (human SHSY5Y) were grown in media consisting of 50% MEMalpha, 50% F12-K, 10% heat-inactivated FBS at 37° C. in an atmosphere of 95% air and 5% CO2. Firstly, cell homogenates were prepared by collection of cells in 0.32 M sucrose and freeze-thawing. Secondly, cells were incubated with Z-Arg-Lys-AOMK or CA-074Me for 6 hours at 37° C., and washed 3 times in phosphate-buffered saline and homogenates were prepared in 0.32 M sucrose with freeze-thawing. CA-074Me is a methyl ester form of the active CA-074 selective inhibitor of cathepsin B (70); CA-074Me penetrates the cell and is converted by intracellular esterases to CA-074.
Cathepsin B activity in the homogenates were monitored with Z-Arg-Arg-AMC substrate (60 μM) with buffer conditions of 40 mM citrate-phosphate, pH 5.5, 5 mM DTT, 1 mM EDTA, 100 mM NaCl, and 1.2% DMSO, followed by incubation at 37° C. for 30 minutes and reading of AMC fluorescence. CA-074-senstive activity was monitored to indicate cathepsin B activity, since CA-074 is a selective inhibitor of this enzyme (70). Protein content was measured in homogenates with the DC protein assay kit. Cathepsin B specific activity was calculated as nmol AMC/μg/min, and reported as the mean±SD (with analyses for statistical significance, p<0.05 by student's t-test).

Assay [2] deals with T2, cathepsin B (Homo sapiens, UniProt P07858).
T2 construct: purchased R&D Systems 953-CY-010
In words: Cathepsin B inhibitor kinetic characterization, fluorogenic assay with Z-Phe-Arg-AMC. To be noted: cathepsin B. The protocol:
Inhibitor kinetic characterization using fluorogenic assays for cathepsin B activity. Kinetic analyses of IC50, K1, kobs, and kinact/K1 values for Z-Arg-Lys-AOMK and Z-Glu-Lys-AOMK inhibition of cathepsin B were conducted by fluorogenic proteolytic assays consisting of 40 μM Z-Phe-Arg-AMC, 40 mM citrate phosphate at pH 7.2 or pH 4.6, 1 mM EDTA, 100 mM NaCl, 5 mM DTT, and 0.01% Tween 20; assays were performed at room temperature (22-27° C.) in quadruplicate. Inhibitor and substrate were combined in the reaction well, and the assay was started upon addition of cathepsin B (0.04 ng/μL). The inhibitor concentration ranged from 5.5 μM to 1.1 nM (1.5-fold serial dilution). A vehicle control assay contained 2% DMSO instead of inhibitor. Enzyme velocity (RFU/sec) was measured during a […] incubation period as relative fluorescent units per sec (RFU/s), calculated using the highest slope recorded for 10 consecutive readings taken at 46 sec intervals (thus, activity is calculated over a total of 460 sec). Prism software was used to analyze enzyme activity data in kinetic studies. IC50 values were calculated (without preincubation of inhibitor and enzyme) as the concentration of inhibitor that reduced cathepsin B activity by 50%.
For determination of K1 and kinact/K1 kinetic inhibition constants, kobs constants were determined by plots of cathepsin B activity in time courses with different inhibitor concentrations by curve fitting slope data of RFU versus time into Y=Y0*e^(−kobs*^X), where Y0 is the activity for the control with no inhibitor condition, Y is the activity in the presence of inhibitor, X is time. K1 and kinact values were calculated from curve fitting the kobs values into the equation kobs=kinact*[I]/(K1+[I]), where [I] is inhibitor concentration, and K1 is the x-axis inhibitor concentration where y=kinact/2 and kinact is the maximum rate of inactivation at saturating inhibitor concentrations (93, 94). These kinetic analyses are for irreversible inhibitors, Z-Arg-Lys-AOMK and Z-Glu-Lys-AOMK of this study, that utilize Ki values, rather than Ki values used for reversible inhibitors (93).

For another assay, the target named is T3, cathepsin C (Homo sapiens, UniProt P53634).
T3 construct: purchased R&D Systems 1071-CY-010
Description: Specificity of inhibitors: cathepsin C (Gly-Arg-AMC substrate). To be noted: pH 7.2, from IC50. Here is the method: (§1) Specificity of inhibitors for other cysteine cathepsin proteases. The effects of Z-Arg-Lys-AOMK and Z-Glu-Lys-AOMK on cathepsin V, L, K, S, X, H and C activities were assessed. IC50 values were calculated at pH 4.6 and pH 7.2 conditions, consisting of 40 mM citrate phosphate, 1 mM EDTA, 100 mM NaCl, and 5 mM DTT. The inhibitor concentrations ranged from 16.38 μM to 256 nM with 2-fold serial dilutions. […] Cathepsin V (0.04 ng/μL), cathepsin L (0.03 ng/μL), cathepsin K (0.10 ng/μL), cathepsin S (0.20 ng/uL) were assayed with 40 μM Z-Phe-Arg-AMC. Cathepsin X (0.20 ng/uL), cathepsin C (0.51 ng/uL) and cathepsin H (0.1 ng/μL) were assayed with 40 μM of MCA-Arg-Pro-Pro-Gly-Phe-Ser-Ala-Phe-Lys(Dnp)OH (SEQ ID NO: 2), Gly-Arg-AMC, and Arg-AMC, respectively. Activation of pro-cathepsin H to cathepsin H was conducted by incubation of cathepsin H (4.4 ng/μL) with cathepsin L (1.1 ng/μL) at RT for 2 hrs in activation buffer (20 mM citrate phosphate pH 6.0, 100 mM NaCl, and 5 mM DTT). Cathepsin C (13.78 ng/μL) was activated by incubation with cathepsin L (3.4 ng/μL) at RT for one hr in activation buffer (20 mM citrate phosphate, pH 6.0, 100 mM NaCl, 5 mM DTT). […] For all assays containing peptide-AMC substrates the fluorescent microplate reader settings were the same as outlined above for cathepsin B. For the cathepsin X assay, the plate reader was set to excitation 320 nm, emission 400 nm, gain 105, top optics and read height 1 mm. To convert RFU/s to picomol/min, 10 μM to 0.005 μM (2-fold serial dilution) of MCA-Arg-Pro-Pro-Gly-Phe-Ser-Ala-Phe-Lys(Dnp)OH (SEQ ID NO: 2) was fully hydrolyzed with excess cathepsin X and a standard curve was generated using the total fluorescence values calculated at each concentration.

The next assay concerns the target T4, cathepsin H (Homo sapiens, UniProt P09668).
T4 construct: purchased R&D Systems 75116-CY-010
Description: Specificity of inhibitors: cathepsin H (Arg-AMC substrate). To be noted: cathepsin H. Here is the method:
as §1

In a further assay the target is T5, cathepsin K (Homo sapiens, UniProt P43235).
T5 construct: purchased Abcam ab157067
T5 sequence (P43235 115-329): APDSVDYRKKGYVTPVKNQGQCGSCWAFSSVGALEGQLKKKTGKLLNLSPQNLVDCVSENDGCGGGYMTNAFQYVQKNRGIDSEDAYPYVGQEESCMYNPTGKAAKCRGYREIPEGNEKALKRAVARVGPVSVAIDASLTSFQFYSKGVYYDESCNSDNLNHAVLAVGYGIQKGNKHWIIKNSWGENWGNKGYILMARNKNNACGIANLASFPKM
In words: Specificity of inhibitors: cathepsin K (Z-Phe-Arg-AMC substrate). To be noted: cathepsin K. Here is the method: as §1

The target in the next assay is T6, cathepsin L (Homo sapiens, UniProt P07711).
T6 construct: purchased R&D Systems 952-CY-010
Description: Specificity of inhibitors: cathepsin L (Z-Phe-Arg-AMC substrate). To be noted: cathepsin L. Here is the method: as §1

Another assay has as its target T7, cathepsin S (Homo sapiens, UniProt P25774).
T7 construct: purchased R&D Systems 1183-CY-010
Description: Specificity of inhibitors: cathepsin S (Z-Phe-Arg-AMC substrate). To be noted: cathepsin S. The protocol:
as §1

The target in a further assay is T8, cathepsin V (Homo sapiens, UniProt O60911).
T8 construct: purchased R&D Systems 1080-CY-010
Description: Specificity of inhibitors: cathepsin V (Z-Phe-Arg-AMC substrate). To be noted: cathepsin V. The protocol: as §1

A further assay has as its target cathepsin X (Homo sapiens, UniProt Q9UBR2). Description: Specificity of inhibitors: cathepsin X (MCA peptide substrate). To be noted: cathepsin X, pH 4.6. The protocol:
as §1

The target in assay [3] is T2, cathepsin B. In words: Irreversible mechanism of inhibitors (pre-incubation, dilution, activity). To be noted: pH 4.6. The protocol: Irreversible mechanism of inhibitors. The irreversible or reversible mechanism of cathepsin B inhibition was assessed for Z-Arg-Lys-AOMK and Z-Glu-Lys-AOMK inhibitors. At pH 7.2, cathepsin B was incubated with 190 nM Z-Arg-Lys-AOMK and 4.99 μM Z-Glu-Lys-AOMK for 15 min in pH 7.2 assay buffer and the assay was performed as described above for pH 4.6. Proteolytic activity was monitored for 2 hr. At pH 4.6, cathepsin B (activated, 3.7 ng/μL) was incubated with 4.24 μM Z-Arg-Lys-AOMK and 3.48 μM Z-Glu-Lys-AOMK for 15 min in 40 mM citrate phosphate pH 4.6, 1 mM EDTA, 100 mM NaCl, and 5 mM DTT; a vehicle control contained 2.5% DMSO. Each reaction was then diluted 100-fold in assay buffer such that the final assay composition was 0.04 ng/μL cathepsin B, 40 μM Z-Phe-Arg-AMC, and an inhibitor concentration of 1/10th the IC50 value.

Here are results for two compounds from US20240181068A1, “SELECTIVE NEUTRAL PH INHIBITOR OF CATHEPSIN B” (The Regents of the University of California, priority 2021, published 2024).

Bounds are passed on as bounds.

T7 sequence (P25774 115-331): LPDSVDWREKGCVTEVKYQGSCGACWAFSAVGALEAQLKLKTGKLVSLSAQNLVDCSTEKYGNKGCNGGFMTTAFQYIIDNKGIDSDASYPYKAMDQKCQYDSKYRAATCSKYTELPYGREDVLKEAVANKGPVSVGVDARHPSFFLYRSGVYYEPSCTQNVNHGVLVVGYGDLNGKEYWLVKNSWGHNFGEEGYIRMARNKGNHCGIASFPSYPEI
T6 sequence (P07711 114-333): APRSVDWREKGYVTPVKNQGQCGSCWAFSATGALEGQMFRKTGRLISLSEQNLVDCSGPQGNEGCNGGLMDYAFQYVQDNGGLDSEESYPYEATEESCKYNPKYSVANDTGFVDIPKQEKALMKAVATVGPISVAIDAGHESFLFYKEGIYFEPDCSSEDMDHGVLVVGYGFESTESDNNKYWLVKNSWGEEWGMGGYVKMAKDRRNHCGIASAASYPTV
T4 sequence (P09668 116-335 limits assumed, other chains not shown): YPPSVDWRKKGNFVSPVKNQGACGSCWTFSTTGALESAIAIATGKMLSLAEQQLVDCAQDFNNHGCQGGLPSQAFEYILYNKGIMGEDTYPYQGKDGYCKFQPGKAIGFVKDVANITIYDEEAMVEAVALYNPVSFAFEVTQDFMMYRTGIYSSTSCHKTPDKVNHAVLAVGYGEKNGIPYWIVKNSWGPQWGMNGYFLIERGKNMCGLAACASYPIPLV
T8 sequence (O60911 114-334): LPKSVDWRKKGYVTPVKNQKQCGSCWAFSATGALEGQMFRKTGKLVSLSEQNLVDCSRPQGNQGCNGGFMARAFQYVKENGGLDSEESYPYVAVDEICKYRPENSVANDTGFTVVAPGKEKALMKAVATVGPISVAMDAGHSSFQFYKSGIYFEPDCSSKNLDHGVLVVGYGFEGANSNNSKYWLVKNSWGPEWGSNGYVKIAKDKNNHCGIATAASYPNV
T3 sequence (P53634 25-134 limits assumed): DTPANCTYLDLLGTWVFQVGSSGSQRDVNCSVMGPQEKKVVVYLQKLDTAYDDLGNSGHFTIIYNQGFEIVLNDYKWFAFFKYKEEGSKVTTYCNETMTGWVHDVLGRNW
T3 sequence (P53634 231-394 limits assumed): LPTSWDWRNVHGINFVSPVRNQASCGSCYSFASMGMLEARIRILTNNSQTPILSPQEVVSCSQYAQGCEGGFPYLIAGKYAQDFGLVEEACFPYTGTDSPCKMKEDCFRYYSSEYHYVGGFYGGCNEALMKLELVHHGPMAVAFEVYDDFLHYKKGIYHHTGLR
T3 sequence (P53634 395-463 limits assumed): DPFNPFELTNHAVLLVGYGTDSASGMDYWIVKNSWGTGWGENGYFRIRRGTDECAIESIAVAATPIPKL
Sequence of cathepsin X (Q9UBR2 62-303): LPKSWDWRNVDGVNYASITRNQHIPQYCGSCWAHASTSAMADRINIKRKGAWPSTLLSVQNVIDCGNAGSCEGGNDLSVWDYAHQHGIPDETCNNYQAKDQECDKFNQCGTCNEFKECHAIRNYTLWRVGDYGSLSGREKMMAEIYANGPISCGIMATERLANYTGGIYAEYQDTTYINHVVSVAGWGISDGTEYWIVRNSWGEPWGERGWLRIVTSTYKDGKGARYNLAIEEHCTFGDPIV

Regarding `CCCNC(=O)[C@H]1O[C@@H]1C(=O)N[C@H](C(=O)N1CCC[C@H]1C(=O)O)[C@@H](C)CC` [CA-074, reference compound], in [1], the “inhibition of proteolytic (cathepsin B) activity in cell lysate” value is “completely inhibited”.

As for `Cc1cccc(C)c1C(=O)OCC(=O)C(CCCCN)NC(=O)C(CCC(=O)O)NC(=O)OCc1ccccc1` (stereo not drawn) [Z-Glu-Lys-AOMK], the second-order inactivation constant (kinact/KI) amounted to 2000 M⁻¹ s⁻¹ on cathepsin B [2] (pH 4.6) and 8200 M⁻¹ s⁻¹ on cathepsin B [2] (pH 7.2). Further, the Ki at cathepsin B [2] (pH 4.6, irreversible inhibitor) is 7.9 µM; on cathepsin B [2] (pH 7.2, irreversible inhibitor), 2.3 µM. For the same compound, the IC50 against cathepsin B [2] (pH 4.6, without preincubation) is 1.1 µM; at cathepsin B [2] (pH 7.2, without preincubation) it was 0.32 µM; against cathepsin H (pH 4.6), above 16 µM; on cathepsin H (pH 7.2), above 16 µM; on cathepsin K (pH 4.6), above 16 µM; at cathepsin K (pH 7.2) it was above 16 µM. For the same compound, the IC50 on cathepsin L (pH 4.6), at cathepsin S (pH 4.6), on cathepsin S (pH 7.2), against cathepsin V (pH 7.2) and at cathepsin X was above 16 µM throughout. Further, at cathepsin C, the “fold more potent for cathepsin B than cathepsin C” value turned out to be 38 fold. Moreover, the inhibition at 16 µM against cathepsin K (pH 4.6, 16,000 nM inhibitor) came out at 10%; on cathepsin L (pH 4.6, 16,000 nM inhibitor), 23%; against cathepsin S (pH 4.6, 16,000 nM inhibitor), 26%; against cathepsin S (pH 7.2, 16,000 nM inhibitor), 30%; on cathepsin V (pH 7.2, 16,000 nM inhibitor) it was 10%. Further, at cathepsin B [3], the “cathepsin B activity after pre-incubation and dilution of inhibitor” value was “no cathepsin B activity”.

In general, kinact/KI refers to the maximal inactivation rate divided by the concentration that gives half of it. Usually IC50 stands for the point on the concentration scale where inhibition reaches its midpoint. A low value points to greater potency. As usually defined, the inhibition is the drop in the measured response relative to a control, in per cent. A higher inhibition goes with a response far below the control.
